Laboratory results taken from ChEMBL document CHEMBL5370652, “Ligand Sulfur Oxidation State Progressively Alters Galectin-3-Ligand Complex Conformations To Induce Affinity-Influencing Hydrogen Bonds” (J Med Chem, 2023).

Assays:
Galectin-3 [1] = biological target: T1, Galectin-3 (Homo sapiens, UniProt P17931); assay: Binding affinity to wild type Galectin-3 (unknown origin) assessed as dissociation constant by fluorescence polarization assay
Galectin-3 [2] = biological target: T1, Galectin-3; assay: Binding affinity to Galectin-3 (unknown origin) assessed as dissociation constant by fluorescence polarization assay
Galectin-3 [3] = biological target: T1, Galectin-3
Description: Binding affinity to Galectin-3 (unknown origin) assessed as gibbs free energy change by isothermal titration calorimetry analysis

Galectin-3 [4] = biological target: T1, Galectin-3; remark: listed apart in the source
Description: Binding affinity to Galectin-3 (unknown origin) assessed as change in enthalpy by isothermal titration calorimetry analysis

Galectin-3 [5] = biological target: T1, Galectin-3; remark: listed apart in the source
Description: Binding affinity to Galectin-3 (unknown origin) assessed as change in entropy by isothermal titration calorimetry analysis

T1 sequence (P17931 whole entry): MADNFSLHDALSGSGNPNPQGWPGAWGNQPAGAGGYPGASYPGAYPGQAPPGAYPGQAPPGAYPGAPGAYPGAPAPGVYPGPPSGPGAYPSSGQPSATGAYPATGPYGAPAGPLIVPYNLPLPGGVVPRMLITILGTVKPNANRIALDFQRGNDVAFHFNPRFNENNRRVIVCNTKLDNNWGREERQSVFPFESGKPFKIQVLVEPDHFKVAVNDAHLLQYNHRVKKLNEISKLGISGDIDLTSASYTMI

Kd (Galectin-3 [1]) [µM] | Kd (Galectin-3 [2]) [µM] | deltaG (Galectin-3 [3]) [kcal/mol] | deltaH (Galectin-3 [4]) [kcal/mol] | -TdeltaS (Galectin-3 [5]) [kcal/mol] | Compound
79 | – | – | – | – | Cc1ccc(S[C@@H]2O[C@H](CO)[C@H](O)[C@H](n3cc(S(=O)(=O)c4ccccc4)nn3)[C@H]2O)cc1
– | 55.5 | -5.55 | -6.17 | 0.62 | [O-][S+](c1ccccc1)c1cn([C@H]2[C@@H](O)[C@@H](CO)O[C@@H](S[C@@H]3O[C@H](CO)[C@@H](O)[C@H](O)[C@H]3O)[C@@H]2O)nn1 (stereo not given in full)
